According to the NIST ThermoML archive (doi:10.1016/j.fluid.2004.10.022):

Assays:
[1] = Liquid; for mass density: 101.33 kPa
[2] = refractive index (Na D-line) (dimensionless); conditions: 298.15 K; 101.33 kPa; Liquid; Standard Abbe refractometry

CC(=O)OC(C)(C)C [1,1-dimethylethyl ethanoate]
[1]
Conditions	mass density [kg/m3]	vapor or sublimation pressure [kPa]
298.15 K	860.53	–
307.53 K	–	8.99
311.79 K	–	10.99
315.64 K	–	13.09
319.82 K	–	15.73
324.28 K	–	19.04
325.46 K	–	20
328.94 K	–	23.09
332.36 K	–	26.48
336.12 K	–	30.67
339.58 K	–	35.02
342.46 K	–	39.04
345.75 K	–	43.98
348.84 K	–	49.09
352.07 K	–	54.94
354.95 K	–	60.02
357.17 K	–	65.33
359.63 K	–	70.88
361.83 K	–	76.15
363.85 K	–	81.26
366 K	–	87.01
367.99 K	–	92.58
369.46 K	–	96.91
370.68 K	–	100.64
370.86 K	–	100
372.26 K	–	105.59

Conditions	refractive index
[2]	1.384

CC(C)CO [2-methyl-1-propanol]
[1]
Conditions	mass density [kg/m3]	vapor or sublimation pressure [kPa]
298.15 K	797.83	–
342.52 K	–	20
381.09 K	–	100

Conditions	refractive index
[2]	1.3937

CC(C)(C)O [2-methylpropan-2-ol]
[1]
Conditions	mass density [kg/m3]	vapor or sublimation pressure [kPa]
300.93 K	–	6.93
303.15 K	775.4	–
304.86 K	–	8.76
309.12 K	–	11.16
313.25 K	–	14.03
315.48 K	–	15.81
320.17 K	–	20
320.75 K	–	20.63
325.05 K	–	25.76
328.35 K	–	30.37
331.45 K	–	35.33
334.15 K	–	40.21
336.65 K	–	45.17
338.85 K	–	49.98
341.05 K	–	55.12
342.95 K	–	59.92
344.85 K	–	65.12
346.45 K	–	69.66
348.15 K	–	74.84
349.75 K	–	79.98
351.25 K	–	85.09
352.65 K	–	90.08
353.95 K	–	94.97
355.15 K	–	99.63
355.59 K	–	100
355.65 K	–	101.33
356.55 K	–	105.13
357.65 K	–	109.82
358.85 K	–	115.07
359.83 K	–	119.91

Conditions	refractive index
[2]	1.3851

CC(=O)OCC(C)C [2-methylpropyl ethanoate]
[1]
Conditions	mass density [kg/m3]	vapor or sublimation pressure [kPa]
293.15 K	866.12	–
307.43 K	–	3.99
315.56 K	–	5.99
322.93 K	–	8.48
328.64 K	–	10.98
335.75 K	–	14.98
341.55 K	–	18.96
342.95 K	–	20
346.88 K	–	23.44
351.45 K	–	27.95
355.75 K	–	32.86
359.66 K	–	37.89
363.22 K	–	42.93
366.39 K	–	47.84
368.76 K	–	51.85
371.61 K	–	57.06
374.55 K	–	62.82
376.93 K	–	67.79
379.15 K	–	72.78
381.03 K	–	77.2
383.63 K	–	83.72
385.84 K	–	89.68
387.69 K	–	94.78
389.16 K	–	98.95
389.9 K	–	100
391.39 K	–	105.57

Conditions	refractive index
[2]	1.3876
